Where a name gives a salt, the structure may show the parent alone. Read-outs that look alike come from different tables or passages of the source.
What was measured:
[1] = tested on: extracellular levels of acetylcholine in medial prefrontal cortex; assay: Acetylcholine modulation in medial prefrontal cortex (microdialysis); assay type: in vivo, male Wistar rats; conditions: for mean AUC of percent change in acetylcholine levels, combination compared to donepezil alone: test compound in combination with donepezil (1 mg/kg, s.c.)
Source text: Male Wistar rats (240-300 g body weight) were stereotaxically implanted with a microdialysis guide cannula in medial prefrontal cortex (mPFC; AP: +3.2 mm, ML: −0.5 mm, DV: −3.0 mm) under isoflurane anesthesia. Co-ordinates were taken according to atlas for the rat brain (Paxinos and Watson 2004) with reference points taken from bregma and vertical from the skull. The rats were allowed to recover individually for four days in a round bottom Plexiglas bowl with free access to feed and water.
After surgical recovery of 4 days, male Wistar rats were connected to dual quartz lined two-channel liquid swivel (Instech, UK) on a counter balance lever arm, which allowed unrestricted movements of the animal. Sixteen hours before start of the study, a pre-equilibrated microdialysis probe (2 mm dialysis membrane) was inserted into mPFC through the guide cannula. On the day of study, probe was perfused with artificial cerebrospinal fluid (aCSF; NaCl 147 mM, KCl2.7 mM, MgCl2 1 mM, CaCl2. 2H2O 1.2 mM, pH 7.4) at a flow rate of 1.5 μL/min and a stabilization period of 2 h was maintained. Five basal samples were collected at 20 min intervals prior to the treatment of test Compounds (3 or 10 mg/kg, p.o.) or vehicle. […] Dialysate samples were collected for an additional period of 4 h post treatment of test compounds. Dialysates were stored below −50° C. prior to analysis.
Acetylcholine concentrations in dialysates were quantified using LC-MS/MS based method.
All microdialysis data for acetylcholine was plotted as percent change from mean dialysate basal concentrations with 100% defined as the average of five pre-dose values. […] Statistical significance was considered at a p value less than 0.05. Incorrect probe placement was considered as criteria to reject the data from animal.

[2] = target: T1, Human histamine-3 receptor (Homo sapiens, UniProt Q9Y5N1); assay: Determination of Ki value at human histamine-3 receptor (radioligand binding, [3H] R-α-methylhistamine)
T1 construct: expressed in transfected cells; host or cells: CHO cells
Description: Test compounds were evaluated according to the following procedures to determine the Ki value at human and rat histamine-3 receptor.
• Receptor source: Rat brain frontal cortex or recombinant human cDNA expressed in CHO cells • Radioligand: [3H] R-α-methylhistamine • Final ligand concentration: [3.0 nM] • Non-specific determinant: R-α-methylhistamine (100 μM) • Reference compound: R-α-methylhistamine • Positive control: R-α-methylhistamine Incubation Conditions:
Increasing concentrations of test compounds or standard were incubated with membrane receptors and radioligand in 5 mM MgC12 and 50 mM TRIS-HCl (pH 7.4) for 60 minutes at room temperature. The reaction was terminated by rapid vacuum filtration onto the glass fiber filters. Radioactivity trapped onto the filters was determined and compared to the control values in order to ascertain any interactions of the test compound(s) with either cloned human or rat receptor binding site.

[3] = tested on: stimulation evoked theta levels in dorsal hippocampus; assay: Theta modulation in dorsal hippocampus of anesthetized rats; assay type: in vivo, male Wistar rats
Source text: Male Wistar rats (240-320 g) were anesthetized by intraperitoneal administration of urethane (1.2 to 1.5 g/kg) for implantation of a catheter in the left femoral vein. The animal was placed in a stereotaxic frame for implanting an electrode (stainless steel wire, Plastics One) into the dorsal hippocampus (AP, −3.8 mm; ML, +2.2 mm; DV, −2.5 mm; Paxinos and Watson, 2004). Bipolar stimulating electrode (untwisted stainless steel wires, separated by 0.75-1.0 mm at their tips, Plastics One) was implanted in the Nucleus Pontis Oralis (NPO; AP, −7.8 mm; ML, 1.8 mm; DV, −6.0 mm; Paxinos and Watson, 2004). Additionally one electrode was implanted into the cerebellum which served as a reference. Hippocampal θ rhythm was evoked via a 6-s electrical stimulation train (20-160 μA, 0.3-ms pulse duration, 250 Hz) delivered to the NPO at a rate of 0.01 trains/s with a Grass S88 stimulator and PSIU6 stimulus isolation unit (Grass Medical Instruments, Quincy, Mass.). EEG was recorded at a rate of 1000 Hz using Ponemah (Version 5.2) software and stored for off-line analysis using NeuroScore (Version 3.0). Baseline amplitude level was achieved by using the current required to elicit θ rhythm to 50% of the maximal amplitude under control conditions.
Power in the θ rhythm frequency in the stimulation period during the 30-min baseline period was calculated and the % changes in these measures post treatment were calculated. […] Statistical significance was considered at a p value less than 0.05.

[4] = test compound (3 or 10 mg/kg, p.o.) in combination with donepezil (1 mg/kg, s.c.)
[5] = Compound 1 (1 mg/kg, i.v.) in combination with donepezil (0.3 mg/kg, i.v.)

T1 sequence (Q9Y5N1 whole entry): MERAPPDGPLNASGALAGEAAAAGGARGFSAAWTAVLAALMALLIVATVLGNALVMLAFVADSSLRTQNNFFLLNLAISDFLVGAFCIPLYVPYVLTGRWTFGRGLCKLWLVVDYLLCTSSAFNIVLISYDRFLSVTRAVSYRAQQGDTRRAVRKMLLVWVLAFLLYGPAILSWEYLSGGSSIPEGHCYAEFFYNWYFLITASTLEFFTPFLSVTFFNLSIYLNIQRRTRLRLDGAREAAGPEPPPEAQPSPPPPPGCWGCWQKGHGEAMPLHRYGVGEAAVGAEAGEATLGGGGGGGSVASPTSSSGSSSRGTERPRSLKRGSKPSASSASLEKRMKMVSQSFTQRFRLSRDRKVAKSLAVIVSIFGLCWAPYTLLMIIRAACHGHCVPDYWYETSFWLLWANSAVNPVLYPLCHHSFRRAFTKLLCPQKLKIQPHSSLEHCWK

## CC(C)N1CCC(Oc2ccc(NC(=O)CN3CCOCC3)cc2)CC1 [Compound 3, N-[4-(1-Isopropylpiperidin-4-yloxy)phenyl]-2-(morpholin-4-yl)acetamide]
[1]; [4]
  peak acetylcholine levels, % of pre-dose levels: 1874±184 % of pre-dose levels
[1]
  mean AUC of percent change in acetylcholine levels, combination compared to donepezil alone: significantly higher
[2]; recombinant human cDNA expressed in CHO cells, [3H] R-α-methylhistamine 3.0 nM, read-out: Human histamie-3 receptor Ki
  Ki: 8.3 nM

## O=C(CN1CCOCC1)Nc1ccc(OC2CCN(C3CC3)CC2)cc1 [Compound 2, N-[4-(1-Cyclopropylpiperidin-4-yloxy)phenyl]-2-(morpholin-4-yl)acetamide tartrate]
[1]; [4]
  peak acetylcholine levels, % of pre-dose levels: 3057±468 % of pre-dose levels
[1]
  mean AUC of percent change in acetylcholine levels, combination compared to donepezil alone: significantly higher
[2]
  Ki: 19.9 nM

## O=C(CN1CCOCC1)Nc1ccc(OC2CCN(C3CCC3)CC2)cc1 [Compound 1, N-[4-(1-Cyclobutylpiperidin-4-yloxy)phenyl]-2-(morpholin-4-yl)acetamide dihydrochloride]
[1]; [4]
  peak acetylcholine levels, % of pre-dose levels: 1676±150 % of pre-dose levels
[1]; test compound (3 or 10 mg/kg, p.o.) in combination with rivastigmine (0.5 mg/kg, s.c.)
  peak acetylcholine levels, % of pre-dose levels: 1276±213 % of pre-dose levels
[1]
  mean AUC of percent change in acetylcholine levels, combination compared to donepezil alone: significantly higher
[1]; test compound in combination with rivastigmine (0.5 mg/kg, s.c.)
  mean AUC of percent change in acetylcholine levels, combination compared to rivastigmine alone: higher
[3]; [5]
  mean AUC of theta power, combination compared to donepezil: significantly higher
  peak theta power levels, % of pre-dose levels: 163±15 % of pre-dose levels

## CCN(C)C(=O)Oc1cccc([C@H](C)N(C)C)c1 [rivastigmine, reference compound]
[1]; rivastigmine alone, 0.5 mg/kg, s.c., mPFC dialysate
  maximum cortical acetylcholine levels, % of basal levels: 612±104 % of basal levels

## COc1cc2c(cc1OC)C(=O)C(CC1CCN(Cc3ccccc3)CC1)C2 (centres unmarked) [donepezil, reference compound]
[3]; donepezil alone, 0.3 mg/kg, i.v.
  effect on hippocampal theta power: increase in hippocampal theta power
